{"source": "ChEMBL document CHEMBL5053497", "about": "“Azaphilones from an Endophytic Penicillium sp. Prevent Neuronal Cell Death via Inhibition of MAPKs and Reduction of Bax/Bcl-2 Ratio” (2021)", "key": {"HT-22 [1]": {"tested_on": "HT-22", "assay": "Inhibition of glutamate-induced MAPK activation in mouse HT-22 cells assessed as reduction in ERK phosphorylation at 10 to 20 uM incubated for 11 hrs in presence of glutamate by Western blot analysis", "type": "cell-based", "conditions": "dose 10-20 µM"}, "HT-22 [2]": {"tested_on": "HT-22", "assay": "Inhibition of glutamate-induced MAPK activation in mouse HT-22 cells assessed as reduction in p38 phosphorylation at 10 to 20 uM incubated for 11 hrs in presence of glutamate by Western blot analysis", "type": "cell-based", "conditions": "dose 10-20 µM"}, "HT-22 [3]": {"tested_on": "HT-22", "assay": "Neuroprotective activity against glutamate-induced cell death in mouse HT-22 cells assessed as reduction in Bax/Bcl2 ratio at 10 to 20 uM incubated for 11 hrs in presence of glutamate by Western blot analysis", "type": "functional, cell-based", "conditions": "dose 10-20 µM"}, "HT-22 [4]": {"tested_on": "HT-22", "assay": "Neuroprotective activity in mouse HT-22 cells assessed as reduction in glutamate-induced intracellular Ca2+ level at 10 to 20 uM incubated for 8 hrs in presence of glutamate by Fluo-4AM staining based microscopic imaging analysis", "type": "functional, cell-based", "conditions": "dose 10-20 µM"}, "HT-22 [5]": {"tested_on": "HT-22", "assay": "Neuroprotective activity in mouse HT-22 cells assessed as inhibition of glutamate-induced nuclear condensation at 10 to 20 uM incubated for 12 hrs in presence of glutamate by Hoechst 33342 staining based fluorescence microscopic analysis", "type": "functional, cell-based", "conditions": "dose 10-20 µM"}, "HT-22 [6]": {"tested_on": "HT-22", "assay": "Neuroprotective activity against glutamate-induced cytotoxicity in mouse HT-22 cells assessed as cell viability at 25 uM incubated for 24 hrs in presence of glutamate by EZ-CyTox reagent based analysis relative to control", "type": "functional", "conditions": "read-out: Activity"}, "HT-22 [7]": {"tested_on": "HT-22", "assay": "Neuroprotective activity against glutamate-induced cytotoxicity in mouse HT-22 cells assessed as cell viability at 12.5 uM incubated for 24 hrs in presence of glutamate by EZ-CyTox reagent based analysis", "type": "functional"}, "HT-22 [8]": {"tested_on": "HT-22", "assay": "Inhibition of glutamate-induced MAPK activation in mouse HT-22 cells assessed as reduction in JNK phosphorylation at 10 to 20 uM incubated for 11 hrs in presence of glutamate by Western blot analysis", "type": "cell-based", "conditions": "dose 10-20 µM"}, "HT-22 [9]": {"tested_on": "HT-22", "assay": "Neuroprotective activity against glutamate-induced cytotoxicity in mouse HT-22 cells assessed as cell viability at 50 to 100 uM incubated for 24 hrs in presence of glutamate by EZ-CyTox reagent based analysis", "type": "functional", "conditions": "dose 50-100 µM"}, "HT-22 [10]": {"tested_on": "HT-22", "assay": "Neuroprotective activity in mouse HT-22 cells assessed as reduction in glutamate-induced intracellular Ca2+ level at 25 uM incubated for 8 hrs in presence of glutamate by Fluo-4AM staining based microscopic imaging analysis", "type": "functional, cell-based"}, "HT-22 [11]": {"tested_on": "HT-22", "assay": "Neuroprotective activity in mouse HT-22 cells assessed as inhibition of glutamate-induced nuclear condensation at 25 uM incubated for 12 hrs in presence of glutamate by Hoechst 33342 staining based fluorescence microscopic analysis", "type": "functional, cell-based"}, "HT-22 [12]": {"tested_on": "HT-22", "assay": "Neuroprotective activity against glutamate-induced cytotoxicity in mouse HT-22 cells assessed as cell viability at 25 to 50 uM incubated for 24 hrs in presence of glutamate by EZ-CyTox reagent based analysis (reference value: 50 %)", "type": "functional", "conditions": "dose 25-50 µM"}, "HT-22 [13]": {"tested_on": "HT-22", "assay": "Neuroprotective activity in mouse HT-22 cells assessed as reduction in glutamate-induced intracellular Ca2+ level at 50 uM incubated for 8 hrs in presence of glutamate by Fluo-4AM staining based microscopic imaging analysis", "type": "functional, cell-based"}}, "note": "Calls of active or inactive are those of the source. The calls are words filed in the database; no cut-off is given here."}
{"smiles": "CC[C@H](C)/C=C(C)/C=C/C1=CC2=C(Cl)C(=O)[C@](C)(OC(C)=O)C(=O)C2=CN1", "note": "[SCLEROTIORAMINE]", "values": [{"measurement": "inhibition", "setting": "HT-22 [1]", "value": "Active"}, {"measurement": "inhibition", "setting": "HT-22 [2]", "value": "Active"}, {"measurement": "Activity", "setting": "HT-22 [3]", "value": "Active"}, {"measurement": "Activity", "setting": "HT-22 [4]", "value": "Active"}, {"measurement": "inhibition", "setting": "HT-22 [5]", "value": "Active"}, {"measurement": "viability at 25 µM", "setting": "HT-22 [6]", "value": 100, "unit": "%"}, {"measurement": "Activity", "setting": "HT-22 [7]", "value": "Active"}, {"measurement": "inhibition", "setting": "HT-22 [8]", "value": "Active"}]}
{"smiles": "CC[C@H](C)/C=C(C)/C=C/C1=CC2=CC(=O)[C@](C)(O)[C@H](O)[C@H]2CO1", "values": [{"measurement": "Activity", "setting": "HT-22 [9]", "value": "Active"}, {"measurement": "Activity", "setting": "HT-22 [10]", "value": "inactive"}, {"measurement": "inhibition", "setting": "HT-22 [11]", "value": "inactive"}]}
{"smiles": "CC[C@H](C)/C=C(C)/C=C/C1=CC2=C(Cl)C(=O)[C@](C)(OC(C)=O)C(=O)C2=CN1CCO", "values": [{"measurement": "Activity", "setting": "HT-22 [4]", "value": "Active"}, {"measurement": "viability at 25 µM", "setting": "HT-22 [6]", "value": 100, "unit": "%"}, {"measurement": "inhibition", "setting": "HT-22 [11]", "value": "Active"}, {"measurement": "Activity", "setting": "HT-22 [12]", "value": 80, "unit": "%"}]}
{"smiles": "CC[C@H](C)/C=C(C)/C=C/C1=CC2=C(Cl)C(=O)[C@](C)(O)[C@H](O)C2=CO1", "values": [{"measurement": "Activity", "setting": "HT-22 [9]", "value": "Active"}]}
{"smiles": "CC(/C=C/C1=CC2=C(Cl)C(=O)[C@](C)(O)[C@H](O)[C@@H]2CO1)=C\\[C@@H](C)CCO", "values": [{"measurement": "Activity", "setting": "HT-22 [10]", "value": "inactive"}, {"measurement": "inhibition", "setting": "HT-22 [11]", "value": "inactive"}, {"measurement": "Activity", "setting": "HT-22 [12]", "value": 80, "unit": "%"}]}
{"smiles": "CC[C@H](C)/C=C(C)/C=C/C1=CC2=C(Cl)C(=O)[C@](C)(OC)C(=O)C2=CN1CCO", "values": [{"measurement": "Activity", "setting": "HT-22 [13]", "value": "Active"}, {"measurement": "viability at 25 µM", "setting": "HT-22 [6]", "value": 100, "unit": "%"}, {"measurement": "inhibition", "setting": "HT-22 [11]", "value": "Active"}, {"measurement": "Activity", "setting": "HT-22 [12]", "value": 80, "unit": "%"}]}
{"smiles": "CC[C@@H](/C=C(C)/C=C/C1=CC2=CC(=O)[C@](C)(O)[C@H](O)[C@H]2CO1)CO", "values": [{"measurement": "Activity", "setting": "HT-22 [10]", "value": "inactive"}, {"measurement": "inhibition", "setting": "HT-22 [11]", "value": "inactive"}, {"measurement": "Activity", "setting": "HT-22 [12]", "value": 80, "unit": "%"}]}
